Source: patent publication US4743587A, “Hydroxamic acid based collagenase inhibitors” (G. D. Searle & Co., priority 1986, dated 1988)

Target: T1, Human Rheumatoid Synovial Collagenase (Homo sapiens, UniProt P03956)
T1 construct: from tissue
T1 sequence (P03956 100-469): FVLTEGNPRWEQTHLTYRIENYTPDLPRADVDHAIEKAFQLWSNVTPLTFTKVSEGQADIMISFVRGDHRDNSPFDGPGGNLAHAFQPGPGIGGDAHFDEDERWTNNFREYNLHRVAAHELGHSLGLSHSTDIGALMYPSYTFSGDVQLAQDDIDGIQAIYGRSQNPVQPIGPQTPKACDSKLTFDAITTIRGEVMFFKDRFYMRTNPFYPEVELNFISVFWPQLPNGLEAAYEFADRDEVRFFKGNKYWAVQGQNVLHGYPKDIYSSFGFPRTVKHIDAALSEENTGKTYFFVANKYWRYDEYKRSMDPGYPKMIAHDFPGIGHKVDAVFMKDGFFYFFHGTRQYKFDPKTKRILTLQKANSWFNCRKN
Assay: Collagenase inhibition (acetyl 14C collagen hydrolysis, procedure of Cawston and Barrett)
Type: biochemical
Details: incubated at 37° C. for 16 hours with native acetyl 14C collagen and collagenase, Tris HCl-CaCl2, pH 7.6
Procedure: This was determined following the procedure of Cawston and Barrett, (Anal. […] The collagen is acetyl ^14 C collagen. The samples are centrifuged to sediment undigested collagen and an aliquot of the radioactive supernatant removed for assay on a scintillation counter as a measure of hydrolysis.

| IC50 | SMILES |
| --- | --- |
| 20 µM | CNC(=O)[C@H](Cc1ccc(OC)cc1)NC(=O)C(CC(C)C)C(C)C(=O)NO (single isomer, unassigned) [3(B), N-[3-(N'-Hydroxycarboxamido)-2-(2-methylpropyl)butanoyl]-O-methyl-L-tyrosine N-Methylamide] |
| 1 µM | CCCCC(CC(=O)NO)C(=O)N[C@@H](Cc1ccc(OC)cc1)C(=O)NC (single isomer, unassigned) [12(B)] |
| > 100 µM | CCCCC(C(=O)NO)C(CC(C)C)C(=O)N[C@@H](Cc1ccc(OC)cc1)C(=O)NC (single isomer, unassigned) [18(B), N-[3-(N'-Hydroxycarboxamido)-2-(2-methylpropyl)heptanoy]-O-methyl-L-tyrosine N-Methylamide] |
| 0.02 µM | CNC(=O)[C@H](Cc1ccc(OC)cc1)NC(=O)C(CC(C)C)C(C)C(=O)NO (single isomer, unassigned) [3(C), N-[3-(N'-Hydroxycarboxamido)-2-(2-methylpropyl)butanoyl]-O-methyl-L-tyrosine N-Methylamide] |
| 0.03 µM | CCCCC(CC(=O)NO)C(=O)N[C@@H](Cc1ccc(OC)cc1)C(=O)NC (stereo partly drawn) [12(A)] |
| 5 µM | CNC(=O)[C@H](Cc1ccc(OC)cc1)NC(=O)C(CC(=O)NO)Cc1ccccc1 (single isomer, unassigned) [13(A), N-[3-(N'-Hydroxycarboxamido)-2-benzylpropanoyl]-O-methyl-L-tyrosine N-Methylamide] |
| 1 µM | CNC(=O)[C@H](Cc1ccc(OC)cc1)NC(=O)C(CC(C)C)C(C(=O)NO)c1ccccc1 (single isomer, unassigned) [4(B), N-[3-(N'-Hydroxycarboxamido)-2-(2-methylpropyl)-3-phenylpropanoyl]-O-methyl-L-tyrosine N-Methylamide] |
| 0.7 µM | CNC(=O)[C@H](Cc1ccc(OC)cc1)NC(=O)C(=CC(=O)NO)CC(C)C [Example 7, N-[3-(N'-Hydroxycarboxamido)-2-(2-methylpropyl)propenoyl]-O-methyl-L-tyrosine N-Methylamide] |
| 100 to 1000 µM | CNC(=O)[C@H](Cc1ccc(OC)cc1)NC(=O)C(C)CC(=O)NO (stereo partly drawn) [Example 5, N-[3-(N'-Hydroxycarboxamido)-2-methylpropanoyl]-O-methyl-L-tyrosine N-Methylamide] |
| 0.15 µM | CNC(=O)[C@H](C)NC(=O)C(CC(=O)NO)CC(C)C (single isomer, unassigned) [8(A), N-[3-(N'-Hydroxycarboxamido)-2-(2-methylpropyl)propanoyl]-L-alanine N-Methylamide] |
| 0.037 µM | CNC(=O)[C@H](Cc1ccc(O)cc1)NC(=O)C(CC(=O)NO)CC(C)C (single isomer, unassigned) [9(A), N-[3-(N'-Hydroxycarboxamido)-2-(2-methylpropyl)propanoyl]-L-tyrosine N-Methylamide] |
| 0.6 µM | CNC(=O)[C@H](Cc1ccc(OC)cc1)NC(=O)C(CC(C)C)C(C(=O)NO)c1ccccc1 (single isomer, unassigned) [4(A), N-[3-(N'-Hydroxycarboxamido)-2-(2-methylpropyl)-3-phenylpropanoyl]-O-methyl-L-tyrosine N-Methylamide] |
| 0.3 µM | CNC(=O)[C@H](Cc1ccc(OC)cc1)NC(=O)C(CC(C)C)C(C)C(=O)NO (single isomer, unassigned) [3(D), N-[3-(N'-Hydroxycarboxamido)-2-(2-methylpropyl)butanoyl]-O-methyl-L-tyrosine N-Methylamide] |
| 1 µM | CNC(=O)[C@H](Cc1ccc(OC)cc1)NC(=O)C(CC(C)C)=C(C)C(=O)NO [Example 20, N-[3-(N'-Hydroxycarboxamido)-2-(2-methylpropyl)-Δ^2,3-butenoyl]-O-methyl-L-tyrosine N Methylamide] |
| 0.52 µM | CNC(=O)[C@H](Cc1ccc(O)cc1)NC(=O)C(CC(=O)NO)CC(C)C (single isomer, unassigned) [9(B), N-[3-(N'-Hydroxycarboxamido)-2-(2-methylpropyl)propanoyl]-L-tyrosine N-Methylamide] |
| > 1000 µM | CNC(=O)[C@H](Cc1ccc(OC)cc1)NC(=O)CCC(=O)NO [Example 6, N-[3-(N'-Hydroxycarboxamido)propanoyl]-O-methyl-L-tyrosine N-Methylamide] |
| 0.2 µM | CCCCC(C(=O)NO)C(CC(C)C)C(=O)N[C@@H](Cc1ccc(OC)cc1)C(=O)NC (single isomer, unassigned) [18(A), N-[3-(N'-Hydroxycarboxamido)-2-(2-methylpropyl)heptanoy]-O-methyl-L-tyrosine N-Methylamide] |
| > 100 µM | CNC(=O)[C@H](Cc1ccc(OC)cc1)NC(=O)C(CC(=O)NO)Cc1ccccc1 (single isomer, unassigned) [13(B), N-[3-(N'-Hydroxycarboxamido)-2-benzylpropanoyl]-O-methyl-L-tyrosine N-Methylamide] |
| 0.4 µM | CNC(=O)[C@H](Cc1ccc(OC)cc1)NC(=O)C(CC(C)C)C(C)C(=O)NO (single isomer, unassigned) [3(A), N-[3-(N'-Hydroxycarboxamido)-2-(2-methylpropyl)butanoyl]-O-methyl-L-tyrosine N-Methylamide] |
| 0.3 µM | CNC(=O)[C@H](C)NC(=O)C(CC(C)C)C(C)C(=O)NO (single isomer, unassigned) [19(B), N-[3-(N'-Hydroxycarboxamido)-2-(2-methylpropyl)butanoyl]-L-alanine N-Methylamide] |
| 100 µM | CNC(=O)[C@H](C)NC(=O)C(CC(C)C)C(C)C(=O)NO (single isomer, unassigned) [19(A), N-[3-(N'-Hydroxycarboxamido)-2-(2-methylpropyl)butanoyl]-L-alanine N-Methylamide] |
